According to US11084829B2, “Ubiquitin-specific-processing protease 7 (USP7) modulators and uses thereof” (RAPT THERAPEUTICS, INC., priority 2018, dated 2021):

Assays:
Format in all cases: cell-based
IMR-32 = test: Cell viability (CellTiter-Glo), IMR-32; settings: Homo sapiens; IMR-32, neuroblastoma, MYCN amplified, p53 wild-type
Method: (§1) CHP-134 was purchased from Sigma Aldrich, MOLM-13 was purchased from AddexBio, and NB-1 was purchased from Sekisui XenoTech. All other cell lines were purchased from American Type Culture Collection. For all cell lines, identity was confirmed by short tandem repeat profiling and culturing was performed in recommended growth medium. For studies evaluating cellular effects of compound treatment, 250 to 2,000 cells in 40 μl of recommended medium were seeded per well in 384-well plates (Corning 3764). DMSO-solubilized compounds were added in duplicate in a two-fold dilution series using a D300e Digital Dispenser (Hewlett-Packard). Following a 5-day incubation, cell viability was measured using CellTiter-Glo (Promega) following the manufacturer's instructions. Luminescence was measured using a CLARIOstar plate reader (BMG LABTECH) and normalized to that of DMSO-treated cells. IC50 values were determined by non-linear regression using a 4-parameter fit in Prism (GraphPad Software). Inhibitor profiling of the 430-cell line panel was conducted and analyzed similarly.
(§2) USP7 has been reported to stabilize MYCN (also referred to as MYCN proto-oncogene, a gene that is a member of the MYC family which is over-expressed in a variety of tumors). […]

M07e = test: Cell viability (CellTiter-Glo), M07e; settings: M-07e, AML, p53 wild-type
Method: as §1
(§3) USP7 inhibition by the compounds of Examples 31 and 124 reduced the viability of several p53-wild type blood cancer cell lines, including M07e, OCI-AML5 and MOLM13, in vitro as shown in the following Table 3. Idasanutlin was used as a positive control, and as expected these cell lines were also sensitive to this compound.

JJN-3 = test: Cell viability (CellTiter-Glo), JJN-3; settings: Homo sapiens; JJN-3, multiple myeloma, p53-mutant
Method: as §1
(§4) In addition to the many p53 wild-type cell lines in the cell line panel that were sensitive to USP7 inhibition, a subset of p53 mutant cell lines that were inhibited by our USP7 inhibitors were identified and are shown in Table 5.

HCC1806 = test: Cell viability (CellTiter-Glo), HCC1806; settings: Homo sapiens; HCC1806, breast, triple-negative, p53-mutant
Method: as §1, §4

H526 = test: Cell viability (CellTiter-Glo), H526
Method: as §1, §4
The effect of pharmacological inhibition of USP7 on the viability of the p53 mutant small cell lung cancer cell line, H526 was further evaluated. […] In contrast, idasanutlin, whose inhibitory effect is dependent on a functional p53 pathway, had no effect.

HCC1937 = test: Cell viability (CellTiter-Glo), HCC1937; settings: Homo sapiens; HCC1937, breast, triple-negative, BRCA1 mutant, p53-mutant
Method: as §1, §4

SK-N-SH = test: Cell viability (CellTiter-Glo), SK-N-SH; settings: Homo sapiens, neuroblastoma, MYC amplified, p53 wild-type
Method: as §1, §2

SH-SY5Y = test: Cell viability (CellTiter-Glo), SH-SY5Y; settings: Homo sapiens, neuroblastoma, MYC amplified, p53 wild-type
Method: as §1
(§5) USP7 has been reported to stabilize MYCN (also referred to as MYCN proto-oncogene, a gene that is a member of the MYC family which is over-expressed in a variety of tumors). Since MYCN amplification is an established driver mutation in neuroblastoma, the effect of USP7 inhibition on a panel of p53 wild-type, MYCN- or MYC-amplified neuroblastoma cell lines was tested. The USP7 inhibitors of Examples 31 and 124 reduced viability of all three MYCN-amplified and two MYC-amplified neuroblastoma cell lines tested as shown in Table 4. Idasanutlin was used as a positive control, and as expected these cell lines were also sensitive to this compound.

NCI-H929 = test: Cell viability (CellTiter-Glo), NCI-H929; settings: Homo sapiens; NCI-H929, MM, p53 wild-type
Method: as §1, §3

CHP-134 = test: Cell viability (CellTiter-Glo), CHP-134; settings: Homo sapiens; CHP-134, neuroblastoma, MYCN amplified, p53 wild-type
Method: as §1, §5

NCI-N87 = test: Cell viability (CellTiter-Glo), NCI-N87; settings: Homo sapiens; NCI-N87, gastric, p53-mutant
Method: as §1, §4

LA-N-2 = test: Cell viability (CellTiter-Glo), LA-N-2; settings: LA-N-2, neuroblastoma, MYCN-amplified, p53-mutant
Method: as §1, §4

MM.1S = test: Cell viability (CellTiter-Glo), MM.1S; settings: Homo sapiens, MM1.S, p53 wild-type
Method: as §1, §3

MOLM13 = test: Cell viability (CellTiter-Glo), MOLM13; settings: Homo sapiens, MOLM-13; MOLM13, AML, p53 wild-type
Method: as §1, §3

NCI-H2009 = test: Cell viability (CellTiter-Glo), NCI-H2009; settings: Homo sapiens; NCI-H2009, lung, adenocarcinoma, p53-mutant
Method: as §1, §4

EBC-1 = test: Cell viability (CellTiter-Glo), EBC-1; settings: Homo sapiens; EBC-1, lung, squamous cell carcinoma, p53-mutant
Method: as §1, §4

NCI-H820 = test: Cell viability (CellTiter-Glo), NCI-H820; settings: NCI-H820, lung, papillary adenocarcinoma, p53-mutant
Method: as §1, §4

NB-1 = test: Cell viability (CellTiter-Glo), NB-1; settings: Homo sapiens, NB1; NB-1, neuroblastoma, MYCN amplified, p53 wild-type
Method: as §1, §5

MHCC97-H = test: Cell viability (CellTiter-Glo), MHCC97-H; settings: Homo sapiens, MHCC97H, hepatocellular carcinoma, p53-mutant
Method: as §1, §4

OCI-AML5 = test: Cell viability (CellTiter-Glo), OCI-AML5; settings: Homo sapiens, OCI-AML-5, p53 wild-type
Method: as §1, §3

SK-N-DZ = test: Cell viability (CellTiter-Glo), SK-N-DZ; settings: Homo sapiens, neuroblastoma, MYCN-amplified, p53-mutant
Method: as §1, §4

HUH-7 = test: Cell viability (CellTiter-Glo), HUH-7; settings: Homo sapiens; HUH-7, hepatocellular carcinoma, p53-mutant
Method: as §1, §4

MOLP8 = test: Cell viability (CellTiter-Glo), MOLP8; settings: Homo sapiens, MOLP-8; MOLP8, MM, p53 wild-type
Method: as §1, §3

EOL-1 = test: Cell viability (CellTiter-Glo), EOL-1; settings: Homo sapiens, EOL1; EOL-1, AML, p53 wild-type
Method: as §1, §3

## COc1cc(C(=O)O)ccc1NC(=O)[C@@H]1N[C@@H](CC(C)(C)C)[C@](C#N)(c2ccc(Cl)cc2F)[C@H]1c1cccc(Cl)c1F [Idasanutlin, reference compound]
IMR-32
  CC50: 240 nM
M07e
  CC50: 30 nM
JJN-3
  CC50: > 25000 nM
HCC1806
  CC50: 7500 nM
H526; H526, p53 mutant small cell lung cancer, in vitro
  effect on viability of H526: had no effect
H526; Homo sapiens, NCI-H526, H526, lung, small cell, p53-mutant, read-out: CC50
  CC50: 6500 nM
HCC1937
  CC50: 7100 nM
SK-N-SH
  CC50: 200 nM
SH-SY5Y
  CC50: 100 to 500 nM
NCI-H929
  CC50: 200 nM
CHP-134
  CC50: 10 nM
NCI-N87
  CC50: 8600 nM
LA-N-2
  CC50: 5300 nM
MM.1S
  CC50: 20 nM
MOLM13
  CC50: 20 nM
NCI-H2009
  CC50: > 25000 nM
EBC-1
  CC50: 16200 nM
NCI-H820
  CC50: 9700 nM
NB-1
  CC50: 100 nM
MHCC97-H
  CC50: > 25000 nM
OCI-AML5
  CC50: 40 nM
SK-N-DZ
  CC50: > 12500 nM
HUH-7
  CC50: > 25000 nM
MOLP8
  CC50: 300 nM
EOL-1
  CC50: 50 nM
